Two molecules from article PMC7265429, “Characterization of a new small-molecule inhibitor of HDAC6 in glioblastoma” (Cell Death & Disease, 2020) can be followed below.

Test [1] relates to U87-MG cells. The test can be described thus: Cell viability in combined treatments with TMZ. The settings on record: Homo sapiens, U-87 MG, 100 μM TMZ, 72 h, read-out: cell viability, TMZ alone. In kind it is cell-based. The method, then: (§1) Glioma-cell lines were seeded at a density of 1.5 × 10^3 cells/well in 96-well plates, with six replicates per condition. […] Cell viability was determined by MTT assay at 72 h after treatment. For this, MTT (3-(4,5-dimethyl-2-thiazolyl)-2,5-diphenyl-2H-tetrazolium bromide) reagent was added and, after a 3 h incubation at 37 °C and 5% CO2, media was removed and the formed crystals were resuspended in DMSO. Plates were measured at 570 nm using a spectrophotometer. Results were analyzed by GraphPad Prism software and IC50 values were calculated.

Test [2] concerns U87-MG cells. Kind of test: Dose-response MTT cell viability assay, U87-MG. The format is cell-based. The note with it: Homo sapiens, U-87 MG, 72 h, Fig. 2d. The method, then: as §1
(Tetrazolium dyes change colour on reduction, which living cells bring about.)

A further test relates to U251-MG cells. Kind of test: Dose-response MTT cell viability assay, U251-MG. In kind it is cell-based. The settings on record: Homo sapiens, U-251, 72 h, Fig. 2d. On the procedure:
as §1

The subject of another test is U373-MG cells. Kind of test: Dose-response MTT cell viability assay, U373-MG. The format is cell-based. The settings on record: Homo sapiens, 72 h, Fig. 2d. On the procedure:
as §1

The subject of a further test is T98-G cells. Kind of test: Dose-response MTT cell viability assay, T98-G. The format is cell-based. The note with it: Homo sapiens, T98G, 72 h, Fig. 2d. The method, then:
as §1

Another test deals with A172 cells. Kind of test: Dose-response MTT cell viability assay, A172. In kind it is cell-based. The note with it: Homo sapiens, A 172, 72 h, Fig. 2d. The method, then:
as §1

In test [3] the test system is patient-derived GNS166 stem cells. Kind of test: Dose-response MTT cell viability assay, GNS166. The note with it: Homo sapiens, 72 h, Fig. 2d. In kind it is cell-based. On the procedure:
as §1

Test [4] concerns patient-derived GNS179 stem cells. The test can be described thus: Dose-response MTT cell viability assay, GNS179. The format is cell-based. The note with it: Homo sapiens, 72 h, Fig. 2d. The method, then:
as §1

The test system of test [5] is acetyl-α-tubulin (HDAC6 main target) in U251-MG cells. The test can be described thus: Western blot of acetyl-α-tubulin and cleaved PARP in U251-MG. In kind it is cell-based, human. The settings on record: 10 nM, 48 h. The method, then: Immunoblots were performed following standard procedures. […] Detection was performed by chemiluminiscence using NOVEX ECL Chemi Substrate (ThermoFisher).
For orientation: Immunoblotting shows a protein as a band on a membrane.

For the molecule `Cn1nnc2c(C(N)=O)ncn2c1=O` [TMZ, temozolomide], the viability (usually the share of living cells, or the viability signal relative to a control) at 100 µM in the test with U87-MG cells [1] is 85%.

In the case of `CN1CCc2c(c3ccccc3n2Cc2ccc(C(=O)NO)cc2)C1` [Tubastatin A], the IC50 – broadly, the concentration that gives 50% inhibition – in the test on U87-MG cells [2] came to 23.7 µM; in the test on U251-MG cells, 26.3 µM; with U373-MG cells, 13.2 µM; in the test on T98-G cells it was 104 µM; in the test on A172 cells, 52.5 µM; in [3], 26.4 µM. The molecule also registered an IC50 in test [4] of 175 µM. Besides, the α-tubulin hyperacetylation result in test [5] is given as “did not”.
